Test results: article PMC7663597, “Structure–Activity Relationship of Aloperine Derivatives as New Anti–Liver Fibrogenic Agents” (Molecules, 2020)
Counter-ions that a name gives are not always drawn. Marks after values point to notes of the source that are not given here.

Columns and labels:
COL1A1 promotor = COL1A1 promotor luciferase reporter gene assay in TGF-β1-treated LX-2 cells; format: cell-based, human; details: for inhibition at 40 µM / inhibition at 80 µM: Homo sapiens, LX-2, 24 h; for inhibition at 40 µM: 24 h with TGF-β1, read-out: Inhibition Percentage 40 μM (inhibition rate of COL1A1 promotor's activity); for inhibition at 80 µM: 24 h with TGF-β1, read-out: Inhibition Percentage 80 μM (inhibition rate of COL1A1 promotor's activity)
Procedure: A single luciferase reporter gene detection model was applied to evaluate the inhibitory effects of all target compounds on the expression of COL1A1 promotor in human hepatic stellate LX-2 cells at the concentrations of 40 and 80 μM, taking EGCG as the positive control. The LX-2 cell lines were transfected with COL1A1 promotor luciferase plasmid pGL4.17-COL1A1P for 24 h, then simultaneously treated with TGF-β1 and a tested compound for 24 h.
(§1) Cells were maintained on Dulbecco’s Modified Eagle’s medium (DMEM), laid on 96-well plate. DMEM medium was supplemented with 10% fetal bovine serum (FBS) at 37 °C humidified atmosphere with 5% CO2. Furthermore, serum-free culture was required until the cells were confluent at 90−95%. 24 h later the cells were treated with a tested compound (40 and 80 μM) for 24 h. The COL1A1 promotor activity was detected by the Bright-Glo luciferase assay system. Alternatively, to test the acute effects of compound on luciferase activity, 24 h later the cells were lysed and the lysate was treated with a tested compound (80 μM) for 2 h, then the luciferase was detected by the Bright-Glo luciferase assay system (Promega, Madison, WI, USA).

luciferase = biological target: T1, luciferase (Photinus pyralis, UniProt P08659, K549A/L550V/N119G/N50D/S548I); assay: Acute effect on luciferase activity (cell lysate, 2 h); format: biochemical; details: 80 μM, 2-h treatment
T1 construct: expressed in transfected cells; host or cells: human hepatic stellate LX-2 cells transfected with pGL4.17-COL1A1P; lysate used
Procedure: Then, their anti-COL1A1 potencies were verified by testing the half maximal inhibition concentration (IC50) values upon COL1A1 expression expression in LX-2 cells. […] Then, compounds 4i, 4n and 4p with the lower IC50 values were selected as the key compounds for further studies.
as §1

[1] = LX-2 cell survival, sulforhodamine B (SRB) assay; format: cell-based; details: human, LX-2 cells
Procedure: LX-2 cell survival was measured by sulforhodamine B (SRB) assay. The cells were seeded in 96-well plates at the density of 2 × 10^4/well and cultured in DMEM/GlutaMAX I medium with 10% fetal bovine serum (FBS) with 5% CO2, 37 °C. The cells were treated by the aloperine derivates for 24 h, washed by PBS for three times. Then the cells were fixed with 10% (wt/vol) trichloroacetic acid for 1 h and stained with SRB for 0.5 h. Subsequently, the protein-bound dye was dissolved in 10 mM Tris base solution after removing excess SRB dye washing repeatedly with 1% (vol/vol) acetic acid, the optical density (OD) was determined at 510 nm with a microplate reader.

[2] = HepG2 cell survival, MTT assay; format: cell-based; details: human, HepG2 cells
Procedure: HepG2 cell survival was measured by MTT assay. HepG2 cells, at density of 6x10^3 cells/well in 96-well culture plates, were incubated with the aloperine derivates at various concentrations until the cells at 50% confluence for 24 h. 20 µL of the MTT (5 mg/mL) solution was added to each plate and incubated with 5% CO2, 37 °C for 4 h. Subsequently, withdrawing the culture supernatant containing MTT, 150 µL DMSO was used for dissolving the formazan crystal. The absorbance was measured using a microplate reader at 570 nm.

T1 sequence (P08659 whole entry N50D/N119G/S548I/K549A/L550V): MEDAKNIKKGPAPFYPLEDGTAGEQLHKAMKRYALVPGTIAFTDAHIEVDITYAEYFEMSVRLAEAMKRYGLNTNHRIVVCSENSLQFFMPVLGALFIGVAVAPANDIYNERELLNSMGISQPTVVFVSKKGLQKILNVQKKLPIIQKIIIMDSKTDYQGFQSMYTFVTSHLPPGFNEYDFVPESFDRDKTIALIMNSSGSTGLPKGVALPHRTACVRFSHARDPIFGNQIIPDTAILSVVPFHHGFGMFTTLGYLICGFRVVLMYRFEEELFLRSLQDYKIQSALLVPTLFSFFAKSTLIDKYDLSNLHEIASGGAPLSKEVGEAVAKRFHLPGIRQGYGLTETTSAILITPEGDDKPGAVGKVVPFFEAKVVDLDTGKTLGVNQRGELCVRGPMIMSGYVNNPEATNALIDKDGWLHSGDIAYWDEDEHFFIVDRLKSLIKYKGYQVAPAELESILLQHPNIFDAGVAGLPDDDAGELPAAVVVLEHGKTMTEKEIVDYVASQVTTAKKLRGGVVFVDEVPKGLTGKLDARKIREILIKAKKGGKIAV

## O=C(CN1CCCC2=C[C@H]3C[C@H](CN4CCCC[C@H]34)[C@@H]21)Nc1cccc2ncccc12 [4l, 12N-N′-(5-Quinolyl)carbamoylmethyl aloperine]
COL1A1 promotor; 40 μM
  inhibition at 40 µM: 31.5 ± 2.6%
COL1A1 promotor
  inhibition at 80 µM: 22.4 ± 16.1%
other
  melting point: 74 to 76 °C

## O=C(O[C@@H]1Cc2c(O)cc(O)cc2O[C@@H]1c1cc(O)c(O)c(O)c1)c1cc(O)c(O)c(O)c1 [EGCG, reference compound]
COL1A1 promotor; at the concentration of 25 μM (positive control)
  Inhibition Percentage (inhibition rate of COL1A1 promotor's activity): 27.5 ± 7.9^e %

## O=C(CN1CCCC2=C[C@H]3C[C@H](CN4CCCC[C@H]34)[C@@H]21)Nc1ccc(-c2cc3ccccc3[nH]2)cc1 [4h, 12N-N′-[4-(1H-Indol-2-yl)phenyl]carbamoylmethyl aloperine]
COL1A1 promotor
  IC50 (concentration required to inhibit 50% of COL1A1 promotor's activity): failed to give a dose-dependent inhibition
  inhibition at 80 µM: 99.9%
COL1A1 promotor; 40 μM, 24 h with TGF-β1
  Inhibition Percentage 40 μM (inhibition rate of COL1A1 promotor's activity): 100.0 ± 0.0%
COL1A1 promotor; 40 μM
  inhibition at 40 µM: 99.9%
luciferase
  Acute effect on luciferase activity: minimal inhibition
[1]
  CC50 at 24 h: 7.5 ± 0.4 µM
[2]
  CC50 at 24 h: 18 ± 1.9 µM
other
  melting point: 219 to 221 °C

## O=C(CN1CCCC2=C[C@H]3C[C@H](CN4CCCC[C@H]34)[C@@H]21)NS(=O)(=O)c1ccc(Br)c(C(F)(F)F)c1 [7c, 12N-N′-(4-Bromo-3-trifluoromethylbenzenesulfonyl)carbamoylmethyl aloperine]
COL1A1 promotor; 40 μM
  inhibition at 40 µM: 32.9 ± 3.4%
COL1A1 promotor
  inhibition at 80 µM: 31.8 ± 3.1%
other
  melting point: 79 to 81 °C

## C1=C2CCCN[C@H]2[C@@H]2C[C@H]1[C@H]1CCCCN1C2 [compound 1, Aloperine]
COL1A1 promotor; 40 μM
  inhibition at 40 µM: 4.7 ± 3.7%
COL1A1 promotor
  inhibition at 80 µM: 2.6 ± 5.2%

## O=C(CN1CCCC2=C[C@H]3C[C@H](CN4CCCC[C@H]34)[C@@H]21)Nc1ccc(F)cc1 [4e, 12N-N′-(4-Fluorophenyl)carbamoylmethyl aloperine]
COL1A1 promotor; 40 μM
  inhibition at 40 µM: 21.4 ± 1.5%
COL1A1 promotor
  inhibition at 80 µM: 26.5 ± 0.5%
other
  melting point: 119 to 121 °C

## O=C(CN1CCCC2=C[C@H]3C[C@H](CN4CCCC[C@H]34)[C@@H]21)NS(=O)(=O)c1ccccc1 [7a, 12N-N′-Benzenesulfonyl carbamoylmethyl aloperine]
COL1A1 promotor; 40 μM
  inhibition at 40 µM: 21.5 ± 4.3%
COL1A1 promotor
  inhibition at 80 µM: 17.1 ± 6.3%
other
  melting point: 113 to 115 °C

## O=C(CNS(=O)(=O)c1cccc(Br)c1)N1CCCC2=C[C@H]3C[C@H](CN4CCCC[C@H]34)[C@@H]21 [10d, 12N-N′-m-Bromobenzenesulfonylaminoacetyl aloperine]
COL1A1 promotor; 40 μM
  inhibition at 40 µM: 28.5 ± 12.3%
COL1A1 promotor
  inhibition at 80 µM: 27.1 ± 10.1%
other
  melting point: 101 to 103 °C

## O=C(CN1CCCC2=C[C@H]3C[C@H](CN4CCCC[C@H]34)[C@@H]21)NC12CC3CC(CC(C3)C1)C2 [4c, 12N-N′-Adamantylcarbamoylmethyl aloperine]
COL1A1 promotor; 40 μM
  inhibition at 40 µM: 23.7 ± 7.7%
COL1A1 promotor
  inhibition at 80 µM: 39.2 ± 1.2%
other
  melting point: 176 to 178 °C

## O=C(CN1CCCC2=C[C@H]3C[C@H](CN4CCCC[C@H]34)[C@@H]21)Nc1cccc(OC(F)(F)F)c1 [4g, 12N-N′-(m-Trifluoromethoxyphenyl)carbamoylmethyl aloperine]
COL1A1 promotor; 40 μM
  inhibition at 40 µM: 67.8 ± 14.9%
COL1A1 promotor
  inhibition at 80 µM: 95.5 ± 5.5%
other
  melting point: 50 to 52 °C

## O=C(CN1CCCC2=C[C@H]3C[C@H](CN4CCCC[C@H]34)[C@@H]21)NC1CCOCC1 [4b, 12N-N′-(Tetrahydro-2H-pyran-4-yl)carbamoylmethyl aloperine hydrochloride]
COL1A1 promotor; 40 μM
  inhibition at 40 µM: 19 ± 3.8%
COL1A1 promotor
  inhibition at 80 µM: 29.8 ± 10%

## Cc1cc(NC(=O)CN2CCCC3=C[C@H]4C[C@H](CN5CCCC[C@H]45)[C@@H]32)cc(C)c1C [4k, 12N-N′-(3,4,5-Trimethylphenyl)carbamoylmethyl aloperine]
COL1A1 promotor; 40 μM
  inhibition at 40 µM: 50.1 ± 6.9%
COL1A1 promotor
  inhibition at 80 µM: 70.7 ± 1.5%
other
  melting point: 183 to 185 °C

## O=C(CN1CCCC2=C[C@H]3C[C@H](CN4CCCC[C@H]34)[C@@H]21)Nc1ccccc1 [4d, 12N-N′-Phenylcarbamoylmethyl aloperine]
COL1A1 promotor; 40 μM
  inhibition at 40 µM: 18.6 ± 8.6%
COL1A1 promotor
  inhibition at 80 µM: 28.3 ± 2.8%
other
  melting point: 66 to 68 °C

## O=C(CN1CCCC2=C[C@H]3C[C@H](CN4CCCC[C@H]34)[C@@H]21)N1CCCC1 [4o, 12N-N′-(1-Pyrrolidinyl)carbamoylmethyl aloperine]
COL1A1 promotor; 40 μM
  inhibition at 40 µM: 16.5 ± 9.8%
COL1A1 promotor
  inhibition at 80 µM: 36.7 ± 9.9%
other
  melting point: 78 to 80 °C

## CCS(=O)(=O)NCC(=O)N1CCCC2=C[C@H]3C[C@H](CN4CCCC[C@H]34)[C@@H]21 [10a, 12N-N′-Ethylsulfonylaminoacetyl aloperine]
COL1A1 promotor; 40 μM
  inhibition at 40 µM: 34 ± 7%
COL1A1 promotor
  inhibition at 80 µM: 34.9 ± 14.7%
other
  melting point: 145 to 147 °C

## O=C(CN1CCCC2=C[C@H]3C[C@H](CN4CCCC[C@H]34)[C@@H]21)NS(=O)(=O)c1ccc2ccccc2c1 [7d]
COL1A1 promotor; 40 μM
  inhibition at 40 µM: 18.8 ± 5.2%
COL1A1 promotor
  inhibition at 80 µM: 9.4 ± 3.7%
other
  melting point: 93 to 95 °C

## O=C(CNS(=O)(=O)c1ccccc1)N1CCCC2=C[C@H]3C[C@H](CN4CCCC[C@H]34)[C@@H]21 [10c, 12N-N′-Benzenesulfonylaminoacetylaloperine]
COL1A1 promotor; 40 μM
  inhibition at 40 µM: 23.7 ± 8.3%
COL1A1 promotor
  inhibition at 80 µM: 20.2 ± 6.4%
other
  melting point: 63 to 65 °C

## O=C(CNS(=O)(=O)c1cccc(OC(F)(F)F)c1)N1CCCC2=C[C@H]3C[C@H](CN4CCCC[C@H]34)[C@@H]21 [10f, 12N-N′-m-Trifluoromethoxybenzenesulfonylaminoacetyl aloperine]
COL1A1 promotor; 40 μM
  inhibition at 40 µM: 43.4 ± 15.9%
COL1A1 promotor
  inhibition at 80 µM: 41.4 ± 7.4%
other
  melting point: 81 to 83 °C

## O=C(CNS(=O)(=O)c1cccc(C(F)(F)F)c1)N1CCCC2=C[C@H]3C[C@H](CN4CCCC[C@H]34)[C@@H]21 [10e, 12N-N′-m-Trifluoromethylbenzenesulfonylaminoacetyl aloperine]
COL1A1 promotor; 40 μM
  inhibition at 40 µM: 29.7 ± 5.1%
COL1A1 promotor
  inhibition at 80 µM: 26.7 ± 21.3%
other
  melting point: 91 to 93 °C

## CN(C(=O)CN1CCCC2=C[C@H]3C[C@H](CN4CCCC[C@H]34)[C@@H]21)c1ccccc1 [4m]
COL1A1 promotor; 40 μM
  inhibition at 40 µM: 19.9 ± 5.2%
COL1A1 promotor
  inhibition at 80 µM: 34.6 ± 2.5%
other
  melting point: 73 to 75 °C

## CCNC(=O)CN1CCCC2=C[C@H]3C[C@H](CN4CCCC[C@H]34)[C@@H]21 [4a, 12N-N′-Ethylcarbamoylmethyl aloperine]
COL1A1 promotor; 40 μM
  inhibition at 40 µM: 7.1 ± 25.6%
COL1A1 promotor
  inhibition at 80 µM: 33.1 ± 1.6%
other
  melting point: 69 to 71 °C

## O=C(CN1CCCC2=C[C@H]3C[C@H](CN4CCCC[C@H]34)[C@@H]21)NS(=O)(=O)c1cccc(C(F)(F)F)c1 [7b, 12N-N′-3-Trifluoromethylbenzenesulfonyl carbamoylmethyl aloperine]
COL1A1 promotor; 40 μM
  inhibition at 40 µM: 23.5 ± 13.5%
COL1A1 promotor
  inhibition at 80 µM: 20.2 ± 1.9%
other
  melting point: 105 to 107 °C

## CCCCS(=O)(=O)NCC(=O)N1CCCC2=C[C@H]3C[C@H](CN4CCCC[C@H]34)[C@@H]21 [10b, 12N-N′-n-Butylsulfonylaminoacetyl aloperine]
COL1A1 promotor; 40 μM
  inhibition at 40 µM: 41.1 ± 9.6%
COL1A1 promotor
  inhibition at 80 µM: 23.7 ± 22.7%
other
  melting point: 98 to 100 °C

## COC(=O)c1ccc(C)c(NC(=O)CN2CCCC3=C[C@H]4C[C@H](CN5CCCC[C@H]45)[C@@H]32)c1 [4j, 12N-N′-(2-Methyl-5-methoxycarbonylphenyl)carbamoylmethyl aloperine]
COL1A1 promotor; 40 μM
  inhibition at 40 µM: 3.8 ± 6.1%
COL1A1 promotor
  inhibition at 80 µM: 32.4 ± 2.7%
other
  melting point: 75 to 77 °C

## Cc1cccc(NC(=O)CN2CCCC3=C[C@H]4C[C@H](CN5CCCC[C@H]45)[C@@H]32)c1 [4f, 12N-N′-(3-Methylphenyl)carbamoylmethyl aloperine]
COL1A1 promotor; 40 μM
  inhibition at 40 µM: 21.2 ± 0.4%
COL1A1 promotor
  inhibition at 80 µM: 33.8 ± 8%
other
  melting point: 40 to 42 °C

## O=C(CN1CCCC2=C[C@H]3C[C@H](CN4CCCC[C@H]34)[C@@H]21)NC1CCOCC1 (as salt: hydrochloride) [4b, 12N-N′-(Tetrahydro-2H-pyran-4-yl)carbamoylmethyl aloperine hydrochloride]
other
  melting point: 199 to 201 °C
